Values of other authors in patent US6949636B2, “Intron/exon structure of the human and mouse β3-adrenergic receptor genes” (Centre National de la Recherche Scientifique, priority 1989, dated 2005).

How the values were obtained:
β3-adrenergic receptor = β3-adrenergic receptor (Homo sapiens, UniProt P13945); conditions: activity increases in the order salbutamol, BRL 28410, BRL 37344, (1)-isoproterenol; from earlier filings
[1] = target: mouse β3-adrenergic receptor (Mus musculus, UniProt P25962); conditions: background statement, earlier filing / Nahmias et al.
mouse β3-adrenergic receptor, sequence (P25962 1-388 limits assumed): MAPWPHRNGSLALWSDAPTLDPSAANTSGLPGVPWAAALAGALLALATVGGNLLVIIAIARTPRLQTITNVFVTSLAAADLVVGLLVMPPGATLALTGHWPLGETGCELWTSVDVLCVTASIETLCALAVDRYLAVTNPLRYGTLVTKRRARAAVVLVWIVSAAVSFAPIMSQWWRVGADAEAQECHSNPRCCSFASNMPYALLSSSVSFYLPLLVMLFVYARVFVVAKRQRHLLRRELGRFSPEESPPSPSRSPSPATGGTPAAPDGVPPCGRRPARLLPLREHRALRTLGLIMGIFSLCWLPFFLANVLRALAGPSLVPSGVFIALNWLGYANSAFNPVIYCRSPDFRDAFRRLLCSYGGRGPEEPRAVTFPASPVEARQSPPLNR

β3-adrenergic receptor, sequence (P13945 1-402 limits assumed): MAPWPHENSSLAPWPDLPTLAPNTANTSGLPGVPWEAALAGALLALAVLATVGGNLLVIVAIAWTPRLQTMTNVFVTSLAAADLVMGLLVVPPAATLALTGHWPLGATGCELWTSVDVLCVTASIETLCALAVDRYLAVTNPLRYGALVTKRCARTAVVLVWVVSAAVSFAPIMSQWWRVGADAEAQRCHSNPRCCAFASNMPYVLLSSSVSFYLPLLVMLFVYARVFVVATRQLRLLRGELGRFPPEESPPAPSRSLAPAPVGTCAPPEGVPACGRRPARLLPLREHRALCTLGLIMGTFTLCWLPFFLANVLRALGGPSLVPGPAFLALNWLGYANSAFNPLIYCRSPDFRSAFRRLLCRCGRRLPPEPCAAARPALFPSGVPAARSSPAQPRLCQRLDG

| activation of mouse β3-adrenergic receptor [1] | SMILES | activating adenylate cyclase in the presence of an agonist (β3-adrenergic receptor) |
| --- | --- | --- |
|  | C[C@H](Cc1ccc(C(=O)O)cc1)NC[C@H](O)c1ccccc1 [BRL 28410] | activating adenylate cyclase |
| can be activated | CC(C)(C)NCC(O)COc1cccc2[nH]c(=O)[nH]c12 (centres unmarked) [CGP 12177A] |  |
| can be activated | CC(C)NCC(O)COc1cccc2[nH]ccc12 (centres unmarked) [pindolol] |  |
| can be activated | C=CCOc1ccccc1OCC(O)CNC(C)C (centres unmarked) [oxprenolol] |  |
|  | CC(C)(C)NCC(O)c1ccc(O)c(CO)c1 (centres unmarked) [salbutamol] | activating adenylate cyclase |
